We go through three compounds from patent US9586958B2, “Prodrug derivatives of substituted triazolopyridines” (BAYER PHARMA AKTIENGESELLSCHAFT, priority 2013, dated 2017).

Data set [1] concerns HeLa human cervical tumor cells. Kind of data set: Proliferation assay, HeLa cells (crystal violet). Format: cell-based. The method, then:
(§1) Cultivated tumor cells (MCF7, hormone dependent human mammary carcinoma cells, ATCC HTB22; NCI-H460, human non-small cell lung carcinoma cells, ATCC HTB-177; DU 145, hormone-independent human prostate carcinoma cells, ATCC HTB-81; HeLa-MaTu, human cervical carcinoma cells, EPO-GmbH, Berlin; HeLa-MaTu-ADR, multidrug-resistant human cervical carcinoma cells, EPO-GmbH, Berlin; HeLa human cervical tumor cells, ATCC CCL-2; B16F10 mouse melanoma cells, ATCC CRL-6475) were plated at a density of 5000 cells/well (MCF7, DU145, HeLa-MaTu-ADR), 3000 cells/well (NCI-H460, HeLa-MaTu, HeLa), or 1000 cells/well (B16F10) in a 96-well multititer plate in 200 μl of their respective growth medium supplemented 10% fetal calf serum. After 24 hours, the cells of one plate (zero-point plate) were stained with crystal violet (see below), while the medium of the other plates was replaced by fresh culture medium (200 μl), to which the test substances were added in various concentrations (0 μM, as well as in the range of 0.01-30 μM; the final concentration of the solvent dimethyl sulfoxide was 0.5%). The cells were incubated for 4 days in the presence of test substances. Cell proliferation was determined by staining the cells with crystal violet: the cells were fixed by adding 20 μl/measuring point of an 11% glutaric aldehyde solution for 15 minutes at room temperature. After three washing cycles of the fixed cells with water, the plates were dried at room temperature. The cells were stained by adding 100 μl/measuring point of a 0.1% crystal violet solution (pH 3.0). After three washing cycles of the stained cells with water, the plates were dried at room temperature. The dye was dissolved by adding 100 μl/measuring point of a 10% acetic acid solution. The extinction was determined by photometry at a wavelength of 595 nm. The change of cell number, in percent, was calculated by normalization of the measured values to the extinction values of the zero-point plate (=0%) and the extinction of the untreated (0 μm) cells (=100%). The IC50 values were determined by means of a 4 parameter fit.

The subject of data set [2] is HeLa-MaTu-ADR, multidrug-resistant human cervical carcinoma cells. The data set is described as follows: Proliferation assay, HeLa-MaTu-ADR cells (crystal violet). The data set is classed as cell-based. As to conditions: read-out: IC50 determined in a HeLa-MaTu-ADR cell proliferation assay. As to the method: as §1
Data set [3] addresses T1, human kinase Mps-1 (Homo sapiens, UniProt P33981).
T1 construct: N-terminally GST-tagged human full length recombinant Mps-1 kinase; GST (N); purchased Invitrogen, Karslruhe, Germany PV4071
T1 sequence (P33981 1-857): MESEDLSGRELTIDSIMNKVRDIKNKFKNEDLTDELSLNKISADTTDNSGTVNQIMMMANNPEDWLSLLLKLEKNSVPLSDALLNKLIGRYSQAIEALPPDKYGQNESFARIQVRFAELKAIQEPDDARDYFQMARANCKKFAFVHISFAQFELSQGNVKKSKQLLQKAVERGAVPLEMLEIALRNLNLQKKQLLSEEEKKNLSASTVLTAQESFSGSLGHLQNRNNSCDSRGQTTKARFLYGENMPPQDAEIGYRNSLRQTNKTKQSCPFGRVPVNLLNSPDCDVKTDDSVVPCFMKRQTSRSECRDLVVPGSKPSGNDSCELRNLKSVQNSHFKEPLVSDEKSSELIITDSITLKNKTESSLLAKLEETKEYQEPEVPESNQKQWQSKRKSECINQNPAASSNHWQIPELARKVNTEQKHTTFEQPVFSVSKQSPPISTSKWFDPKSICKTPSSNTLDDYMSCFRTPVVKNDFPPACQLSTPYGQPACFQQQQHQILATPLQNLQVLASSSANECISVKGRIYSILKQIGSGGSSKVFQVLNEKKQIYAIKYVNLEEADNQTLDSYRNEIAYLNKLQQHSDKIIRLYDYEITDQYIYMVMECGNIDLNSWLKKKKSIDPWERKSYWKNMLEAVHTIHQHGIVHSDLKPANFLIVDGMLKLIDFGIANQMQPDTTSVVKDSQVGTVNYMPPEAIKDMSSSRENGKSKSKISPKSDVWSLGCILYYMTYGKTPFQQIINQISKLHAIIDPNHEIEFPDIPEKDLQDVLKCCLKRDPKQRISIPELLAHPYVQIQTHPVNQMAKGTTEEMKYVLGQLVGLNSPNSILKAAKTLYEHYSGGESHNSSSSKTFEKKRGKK
The data set is described as follows: Mps-1 kinase assay (TR-FRET) with 10 μM ATP. Format: biochemical. Background: TR-FRET usually uses a lanthanide donor and a delayed reading to cut background.

Data set [4] deals with T1, human kinase Mps-1. Kind of data set: Mps-1 kinase assay (TR-FRET) with 2 mM ATP. Format: biochemical.
A short description of data set [5]: Metabolic stability in vitro, rat liver microsomes (calculation of Fmax). Format: in vitro ADME. The method, then:
(§2) The metabolic stability of test compounds in vitro was determined by incubating them at 1 μM with a suspension liver microsomes in 100 mM phosphate buffer, pH7.4 (NaH2PO4×H2O+Na2HPO4×2H2O) at a protein concentration of 0.5 mg/mL and at 37° C. The reaction was activated by adding a co-factor mix containing 1.2 mg NADP, 3 IU glucose-6-phosphate dehydrogenase, 14.6 mg glucose-6-phosphate and 4.9 mg MgCl2 in phosphate buffer, pH 7.4. Organic solvent in the incubations was limited to <0.2% dimethylsulfoxide (DMSO) and <1% methanol. During incubation, the microsomal suspensions were continuously shaken and aliquots were taken at 2, 8, 16, 30, 45 and 60 min, to which equal volumes of cold methanol were immediately added. Samples were frozen at −20° C. over night, subsequently centrifuged for 15 minutes at 3000 rpm and the supernatant was analyzed with an Agilent 1200 HPLC-system with LCMS/MS detection.
(§3) The half-life of a test compound was determined from the concentration-time plot. From the half-life the intrinsic clearances were calculated. Together with the additional parameters liver blood flow, specific liver weight and microsomal protein content the hepatic in vivo blood clearance (CL) and the maximal oral bioavailability (Fmax) were calculated for the different species. The following parameter values were used: Liver blood flow—1.3 L/h/kg (human), 2.1 L/h/kg (dog), 4.2 L/h/kg (rat); specific liver weight—21 g/kg (human), 39 g/kg (dog), 32 g/kg (rat); microsomal protein content—40 mg/g.
(§4) With the described assay only phase-I metabolism of microsomes is reflected, e.g. typically oxidoreductive reactions by cytochrome P450 enzymes and flavin mono-oxygenases (FMO) and hydrolytic reactions by esterases (esters and amides).

Data set [6] in a line: Metabolic stability in vitro, human liver microsomes (calculation of Fmax). Format: in vitro ADME. Conditions: for Human liver microsomes; Fmax [%]: 1 μM; for calculated maximal oral bioavailability (Fmax) at 1 μM: pH 7.4, determined by means of human liver microsomes, read-out: maximum oral bioavailability (Fmax) in human. The method, then:
as §2, §3, §4

Data set [7] is described as follows: Metabolic stability in vitro, dog liver microsomes (calculation of Fmax). The data set is classed as in vitro ADME. The method, then: as §2, §3, §4
The mark [8] stands for this setting: 96 h, HeLa cells, 4 days, read-out: Inhibition of cell proliferation, cell Line: HeLa IC50.
[9] abbreviates: HeLa, comparison table with comparative examples, read-out: Inhibition of cell proli-feration, cell line: HeLa, IC50.
Setting [10] is: HeLa, read-out: IC50 in a HeLa cell proliferation assay.
[11] abbreviates: IC50 in an Mps-1 kinase assay with a concentration of 10 μM ATP.
[12] abbreviates: Mps-1 Inhibition, IC50 (Assay with 10 μM ATP), comparison table with comparative examples.
[13] abbreviates: Mps-1 Inhibition, IC50 in M (Assay with 10 μM ATP).
The mark [14] stands for this setting: IC50 in an Mps-1 kinase assay with a concentration of 2 mM ATP.
[15] abbreviates: Mps-1 Inhibition, IC50 in M (Assay with 2 mM ATP).
Where [16] appears, read: comparison table with comparative examples.

Where two headings read alike, the source gives them in different places.

For the compound `C[C@@H](C(=O)Nc1ccc(-c2ccc3nc(Nc4ccc(S(C)(=O)=O)cc4OCC(F)(F)F)nn3c2)cc1)c1ccc(F)cc1` [Compound A2, (2R)-2-(4-fluorophenyl)-N-[4-(2-{[4-(methylsulfonyl)-2-(2,2,2-trifluoro-ethoxy)phenyl]amino}[1,2,4]triazolo[1,5-α]pyridin-6-yl)phenyl]-propanamide], the IC50 was less than 200 nM in data set [1] (setting [8]); less than 200 nM in data set [1] (setting [9]); less than 400 nM in data set [1] (setting [10]); less than 10000 nM in data set [2]; not above 1 nM at human kinase Mps-1 [3] (setting [11]); less than 1 nM at human kinase Mps-1 [3] (setting [12]). In addition, the IC50 was less than 1 nM against human kinase Mps-1 [3] (setting [13]), less than 2 nM against human kinase Mps-1 [4] (setting [14]) and less than 1 nM on human kinase Mps-1 [4] (setting [15]). The “Rat liver microsomes; Fmax [%]” value is given as 93% in data set [5] (setting [16]) and 93% in data set [5] (rat liver microsomes, 1 μM). For the same compound, in data set [6], the “Human liver microsomes; Fmax [%]” value is on record as more than 95%. In data set [6], the calculated maximal oral bioavailability (Fmax) at 1 μM is more than 60%. The “Dog liver microsomes; Fmax [%]” value in data set [7] (setting [16]) is given as 55%; in data set [7] (dog liver microsomes, 1 μM) it was 55%.

`COc1cc(C(=O)N2CCC2)ccc1Nc1nc2ccc(-c3ccc(NC(=O)[C@H](C)c4ccc(F)cc4)cc3)cn2n1` [Compound A4, (2R)-N-[4-(2-{[4-(azetidin-1-ylcarbonyl)-2-methoxyphenyl]amino}[1,2,4]-triazolo[1,5-α]pyridin-6-yl)phenyl]-2-(4-fluorophenyl)propanamide]: the IC50 in data set [1] (setting [8]) was less than 100 nM; in data set [1] (setting [9]), less than 100 nM; in data set [1] (setting [10]), less than 400 nM; in data set [2] it was less than 10000 nM; against human kinase Mps-1 [3] (setting [11]), not above 1 nM; on human kinase Mps-1 [3] (setting [12]), less than 1 nM. Also, the IC50 at human kinase Mps-1 [3] (setting [13]) is less than 1 nM; at human kinase Mps-1 [4] (setting [14]) it was less than 2 nM; on human kinase Mps-1 [4] (setting [15]), less than 1 nM. The “Rat liver microsomes; Fmax [%]” value in data set [5] (setting [16]) is on record as 74%; in data set [5] (rat liver microsomes, 1 μM), 74%. Moreover, in data set [6], the “Human liver microsomes; Fmax [%]” value is given as 62%. Besides, the calculated maximal oral bioavailability (Fmax) at 1 μM in data set [6] is more than 60%. Also, the “Dog liver microsomes; Fmax [%]” value in data set [7] (setting [16]) is recorded as 75%; in data set [7] (dog liver microsomes, 1 μM) it was 75%.

Take `C[C@@H](C(=O)Nc1ccc(-c2ccc3nc(Nc4ccc(C(=O)N5CC(F)C5)cc4OCC(F)(F)F)nn3c2)cc1)c1ccc(F)cc1` [Compound A5, (2R)-N-{4-[2-({4-[(3-fluoroazetidin-1-yl)carbonyl]-2-(2,2,2-trifluoroethoxy)phenyl}amino)[1,2,4]triazolo[1,5-α]pyridin-6-yl]phenyl}-2-(4-fluorophenyl)propanamide]: the IC50 in data set [1] (setting [8]) is less than 100 nM; in data set [1] (setting [9]), less than 100 nM; in data set [1] (setting [10]), less than 400 nM; in data set [2], less than 10000 nM; on human kinase Mps-1 [3] (setting [11]), not above 1 nM; against human kinase Mps-1 [3] (setting [12]), less than 1 nM. Moreover, the figures for the IC50 against human kinase Mps-1 [3] (setting [13]), on human kinase Mps-1 [4] (setting [14]) and at human kinase Mps-1 [4] (setting [15]) were less than 1 nM, less than 2 nM and less than 1 nM, respectively. Also, the “Rat liver microsomes; Fmax [%]” value is 89% in data set [5] (setting [16]) and 89% in data set [5] (rat liver microsomes, 1 μM). Further, the “Human liver microsomes; Fmax [%]” value in data set [6] is 69%. Besides, the calculated maximal oral bioavailability (Fmax) at 1 μM in data set [6] is more than 60%. Further, the “Dog liver microsomes; Fmax [%]” value in data set [7] (setting [16]) is reported as 57%; in data set [7] (dog liver microsomes, 1 μM) it was 57%.
